{
  "source": "paper PMC6704710",
  "about": "“Preclinical evaluation of 3D185, a novel potent inhibitor of FGFR1/2/3 and CSF-1R, in FGFR-dependent and macrophage-dominant cancer models” (Journal of Experimental & Clinical Cancer Research : CR, 2019)",
  "test_in_all_cases": "Eurofins kinase panel",
  "type_in_all_cases": "biochemical",
  "details_in_all_cases": "read-out: Inhibition rate (%)",
  "key": {"NUAK2(h)": {"biological_target": "T1, NUAK2(h) (Homo sapiens, UniProt Q9H093)", "T1 construct": "purchased Eurofins (KinaseProfiler)", "T1 sequence (Q9H093 1-628)": "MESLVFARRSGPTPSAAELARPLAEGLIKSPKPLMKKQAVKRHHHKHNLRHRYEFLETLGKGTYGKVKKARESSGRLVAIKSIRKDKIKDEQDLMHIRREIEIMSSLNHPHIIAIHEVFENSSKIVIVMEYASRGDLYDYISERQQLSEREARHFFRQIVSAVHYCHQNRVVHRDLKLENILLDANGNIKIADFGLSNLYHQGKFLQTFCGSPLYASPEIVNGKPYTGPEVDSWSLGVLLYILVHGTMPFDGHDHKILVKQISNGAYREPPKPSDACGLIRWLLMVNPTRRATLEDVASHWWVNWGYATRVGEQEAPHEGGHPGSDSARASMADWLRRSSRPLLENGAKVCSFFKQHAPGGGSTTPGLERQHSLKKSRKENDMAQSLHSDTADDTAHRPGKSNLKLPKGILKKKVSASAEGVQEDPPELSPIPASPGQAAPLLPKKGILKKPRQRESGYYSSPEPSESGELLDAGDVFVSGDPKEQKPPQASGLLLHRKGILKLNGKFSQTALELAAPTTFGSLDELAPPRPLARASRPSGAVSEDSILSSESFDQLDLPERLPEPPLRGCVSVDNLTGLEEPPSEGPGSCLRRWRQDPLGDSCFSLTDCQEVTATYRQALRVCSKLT"}, "IKKα(h)": {"biological_target": "T2, IKKα(h) (Homo sapiens, UniProt O15111)", "T2 construct": "purchased Eurofins (KinaseProfiler)", "T2 sequence (O15111 1-745)": "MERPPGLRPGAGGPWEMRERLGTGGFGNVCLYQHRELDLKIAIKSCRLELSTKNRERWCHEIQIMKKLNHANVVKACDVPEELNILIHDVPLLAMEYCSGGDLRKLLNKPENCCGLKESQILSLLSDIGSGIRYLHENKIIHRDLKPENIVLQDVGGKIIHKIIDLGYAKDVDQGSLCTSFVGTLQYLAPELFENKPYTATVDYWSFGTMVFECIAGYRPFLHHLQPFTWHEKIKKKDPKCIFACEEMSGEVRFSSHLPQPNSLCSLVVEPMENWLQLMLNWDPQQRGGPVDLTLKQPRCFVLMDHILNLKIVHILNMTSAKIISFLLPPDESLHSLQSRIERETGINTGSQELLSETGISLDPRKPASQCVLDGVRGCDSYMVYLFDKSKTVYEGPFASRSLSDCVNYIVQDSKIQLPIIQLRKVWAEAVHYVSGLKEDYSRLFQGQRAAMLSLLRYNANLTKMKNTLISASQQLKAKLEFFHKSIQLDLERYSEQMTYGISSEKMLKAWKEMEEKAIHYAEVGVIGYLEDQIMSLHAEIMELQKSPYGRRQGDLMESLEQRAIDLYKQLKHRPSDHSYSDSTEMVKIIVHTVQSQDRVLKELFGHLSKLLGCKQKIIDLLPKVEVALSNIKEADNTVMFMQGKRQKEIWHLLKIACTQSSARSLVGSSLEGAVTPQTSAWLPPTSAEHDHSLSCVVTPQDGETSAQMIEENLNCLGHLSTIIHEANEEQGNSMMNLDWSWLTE"}, "IGF-1R(h)": {"biological_target": "T3, IGF-1R(h) (Homo sapiens, UniProt P08069)", "T3 construct": "purchased Eurofins (KinaseProfiler)", "T3 sequence (P08069 31-1367)": "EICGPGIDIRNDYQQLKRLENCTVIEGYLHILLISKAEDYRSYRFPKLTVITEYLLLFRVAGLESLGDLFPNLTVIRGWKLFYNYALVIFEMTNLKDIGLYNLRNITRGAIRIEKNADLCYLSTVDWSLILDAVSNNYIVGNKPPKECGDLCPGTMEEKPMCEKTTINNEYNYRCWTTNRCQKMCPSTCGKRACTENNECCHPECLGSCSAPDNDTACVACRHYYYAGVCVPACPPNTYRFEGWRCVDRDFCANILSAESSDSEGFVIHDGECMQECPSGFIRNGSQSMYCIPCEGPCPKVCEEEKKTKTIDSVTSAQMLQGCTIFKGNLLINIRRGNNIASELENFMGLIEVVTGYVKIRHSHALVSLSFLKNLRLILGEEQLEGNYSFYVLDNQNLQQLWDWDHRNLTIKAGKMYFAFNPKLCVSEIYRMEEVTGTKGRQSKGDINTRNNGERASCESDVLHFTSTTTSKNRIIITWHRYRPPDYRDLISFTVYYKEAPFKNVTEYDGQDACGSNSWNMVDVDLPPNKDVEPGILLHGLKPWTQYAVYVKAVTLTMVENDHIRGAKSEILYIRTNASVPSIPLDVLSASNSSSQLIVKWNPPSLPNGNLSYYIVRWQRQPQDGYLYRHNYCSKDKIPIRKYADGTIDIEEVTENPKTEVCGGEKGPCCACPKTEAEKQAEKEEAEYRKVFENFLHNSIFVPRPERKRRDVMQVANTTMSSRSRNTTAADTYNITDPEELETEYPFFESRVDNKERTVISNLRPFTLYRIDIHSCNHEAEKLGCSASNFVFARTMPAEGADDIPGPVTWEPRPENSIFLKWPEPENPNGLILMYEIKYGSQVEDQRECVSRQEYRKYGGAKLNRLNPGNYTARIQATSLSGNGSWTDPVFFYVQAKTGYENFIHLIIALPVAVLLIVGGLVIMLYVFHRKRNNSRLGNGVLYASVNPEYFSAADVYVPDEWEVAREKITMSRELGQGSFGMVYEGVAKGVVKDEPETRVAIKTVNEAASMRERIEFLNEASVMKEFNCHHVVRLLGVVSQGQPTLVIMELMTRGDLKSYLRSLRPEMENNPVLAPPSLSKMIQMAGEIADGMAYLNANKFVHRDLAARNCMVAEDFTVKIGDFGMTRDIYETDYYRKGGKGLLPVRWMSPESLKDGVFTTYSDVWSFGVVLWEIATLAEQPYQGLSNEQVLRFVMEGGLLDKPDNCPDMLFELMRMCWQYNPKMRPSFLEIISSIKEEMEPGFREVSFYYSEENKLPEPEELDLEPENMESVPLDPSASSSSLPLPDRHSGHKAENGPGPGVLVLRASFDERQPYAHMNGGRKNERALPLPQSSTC"}, "[1]": {"biological_target": "T4, PI3 Kinase (p110α/p65α)(h) (Homo sapiens, UniProt P42336)", "T4 construct": "purchased Eurofins (KinaseProfiler)", "T4 sequence (P42336 whole entry)": "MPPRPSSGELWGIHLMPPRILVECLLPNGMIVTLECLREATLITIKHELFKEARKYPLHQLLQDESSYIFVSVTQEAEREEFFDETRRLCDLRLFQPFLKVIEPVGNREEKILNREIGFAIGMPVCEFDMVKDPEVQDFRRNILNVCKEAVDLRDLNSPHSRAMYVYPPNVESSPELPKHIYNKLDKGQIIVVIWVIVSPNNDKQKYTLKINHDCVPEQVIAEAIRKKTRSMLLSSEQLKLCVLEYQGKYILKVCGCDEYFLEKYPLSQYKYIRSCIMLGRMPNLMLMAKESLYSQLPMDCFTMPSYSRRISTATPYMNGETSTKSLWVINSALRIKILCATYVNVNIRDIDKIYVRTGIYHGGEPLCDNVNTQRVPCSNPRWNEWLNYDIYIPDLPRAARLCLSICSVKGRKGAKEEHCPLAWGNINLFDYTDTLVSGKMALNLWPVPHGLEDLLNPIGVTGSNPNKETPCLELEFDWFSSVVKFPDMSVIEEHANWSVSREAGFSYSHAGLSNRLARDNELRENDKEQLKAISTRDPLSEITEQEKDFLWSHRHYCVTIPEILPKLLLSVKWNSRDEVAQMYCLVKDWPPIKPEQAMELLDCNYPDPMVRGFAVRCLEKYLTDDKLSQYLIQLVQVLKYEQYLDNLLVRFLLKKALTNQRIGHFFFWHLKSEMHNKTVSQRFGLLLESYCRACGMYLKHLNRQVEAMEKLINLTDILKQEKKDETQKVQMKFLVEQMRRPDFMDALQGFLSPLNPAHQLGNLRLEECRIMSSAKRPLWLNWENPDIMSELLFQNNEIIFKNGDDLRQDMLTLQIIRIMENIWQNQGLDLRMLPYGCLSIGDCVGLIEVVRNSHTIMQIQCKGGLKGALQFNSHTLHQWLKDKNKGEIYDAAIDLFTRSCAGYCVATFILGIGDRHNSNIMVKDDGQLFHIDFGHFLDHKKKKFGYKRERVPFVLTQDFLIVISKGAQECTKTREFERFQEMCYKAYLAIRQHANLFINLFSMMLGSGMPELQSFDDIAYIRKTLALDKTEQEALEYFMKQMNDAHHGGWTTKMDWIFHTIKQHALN", "T4 sequence (P27986 1-571 partner limits assumed)": "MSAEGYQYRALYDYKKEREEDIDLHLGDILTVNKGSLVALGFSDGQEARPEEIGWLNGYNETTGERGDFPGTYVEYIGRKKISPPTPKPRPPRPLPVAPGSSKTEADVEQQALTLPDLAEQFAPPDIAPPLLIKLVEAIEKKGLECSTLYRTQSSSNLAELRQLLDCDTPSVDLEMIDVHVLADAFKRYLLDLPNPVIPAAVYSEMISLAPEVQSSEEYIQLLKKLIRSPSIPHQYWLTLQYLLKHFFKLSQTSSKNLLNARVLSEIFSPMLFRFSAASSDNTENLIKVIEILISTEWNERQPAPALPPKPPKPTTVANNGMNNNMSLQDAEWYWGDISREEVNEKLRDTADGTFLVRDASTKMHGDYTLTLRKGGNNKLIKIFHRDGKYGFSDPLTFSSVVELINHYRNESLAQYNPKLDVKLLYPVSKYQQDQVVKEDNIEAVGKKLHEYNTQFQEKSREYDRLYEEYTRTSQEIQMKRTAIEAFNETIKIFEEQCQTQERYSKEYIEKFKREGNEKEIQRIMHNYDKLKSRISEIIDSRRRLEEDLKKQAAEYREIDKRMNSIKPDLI"}, "EphA8(h)": {"biological_target": "T5, EphA8(h) (Homo sapiens, UniProt P29322)", "T5 construct": "purchased Eurofins (KinaseProfiler)", "T5 sequence (P29322 28-1005)": "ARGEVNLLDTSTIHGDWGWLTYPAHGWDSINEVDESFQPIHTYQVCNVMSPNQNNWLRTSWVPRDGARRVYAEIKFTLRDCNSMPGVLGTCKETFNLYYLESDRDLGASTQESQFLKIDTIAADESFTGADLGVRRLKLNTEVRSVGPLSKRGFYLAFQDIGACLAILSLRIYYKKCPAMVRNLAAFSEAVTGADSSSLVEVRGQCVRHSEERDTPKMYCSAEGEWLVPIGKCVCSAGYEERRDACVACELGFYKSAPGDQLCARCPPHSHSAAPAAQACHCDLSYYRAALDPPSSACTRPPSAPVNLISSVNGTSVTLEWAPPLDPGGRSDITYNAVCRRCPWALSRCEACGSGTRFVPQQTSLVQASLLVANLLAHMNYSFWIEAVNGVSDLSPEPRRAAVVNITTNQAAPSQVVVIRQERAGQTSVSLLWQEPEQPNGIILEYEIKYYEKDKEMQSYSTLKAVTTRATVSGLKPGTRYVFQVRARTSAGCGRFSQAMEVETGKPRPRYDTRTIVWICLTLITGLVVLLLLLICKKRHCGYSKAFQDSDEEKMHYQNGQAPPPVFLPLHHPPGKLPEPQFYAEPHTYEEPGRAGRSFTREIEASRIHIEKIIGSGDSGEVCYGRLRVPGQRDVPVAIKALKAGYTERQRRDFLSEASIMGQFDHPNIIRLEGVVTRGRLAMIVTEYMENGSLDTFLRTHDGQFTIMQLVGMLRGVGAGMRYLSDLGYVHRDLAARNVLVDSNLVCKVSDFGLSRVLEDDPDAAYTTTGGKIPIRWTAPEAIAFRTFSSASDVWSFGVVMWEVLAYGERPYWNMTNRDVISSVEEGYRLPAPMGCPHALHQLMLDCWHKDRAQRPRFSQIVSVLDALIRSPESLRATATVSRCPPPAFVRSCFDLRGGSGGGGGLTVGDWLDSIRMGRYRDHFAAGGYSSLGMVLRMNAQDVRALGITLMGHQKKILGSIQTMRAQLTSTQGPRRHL"}, "MYLK2(h)": {"biological_target": "T6, MYLK2(h) (Homo sapiens, UniProt Q9H1R3)", "T6 construct": "purchased Eurofins (KinaseProfiler)", "T6 sequence (Q9H1R3 whole entry)": "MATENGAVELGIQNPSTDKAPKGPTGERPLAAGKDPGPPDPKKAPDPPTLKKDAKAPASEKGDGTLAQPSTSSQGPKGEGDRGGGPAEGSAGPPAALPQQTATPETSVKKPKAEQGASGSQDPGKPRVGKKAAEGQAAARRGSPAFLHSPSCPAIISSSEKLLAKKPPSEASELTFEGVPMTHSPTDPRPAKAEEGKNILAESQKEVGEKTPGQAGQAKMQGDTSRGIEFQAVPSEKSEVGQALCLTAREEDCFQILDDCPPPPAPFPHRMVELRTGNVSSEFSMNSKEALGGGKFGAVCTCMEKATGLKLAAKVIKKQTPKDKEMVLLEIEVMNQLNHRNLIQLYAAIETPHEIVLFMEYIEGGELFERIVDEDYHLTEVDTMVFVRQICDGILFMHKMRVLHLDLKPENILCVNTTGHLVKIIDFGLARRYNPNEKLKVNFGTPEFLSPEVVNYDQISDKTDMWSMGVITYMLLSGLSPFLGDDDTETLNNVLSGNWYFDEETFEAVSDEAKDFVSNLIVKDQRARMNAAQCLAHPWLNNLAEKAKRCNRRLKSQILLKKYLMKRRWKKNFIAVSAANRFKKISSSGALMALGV"}},
  "data": [
    {"compound": "COc1cc(OC)c(Cl)c(-c2ccc3c(NC(=O)c4ccc(N5CCNC(C)(C)C5)cc4)n[nH]c3n2)c1Cl", "note": "[3D185]", "values": [
      {"measurement": "inhibition at 0.01 µM", "setting": "NUAK2(h); 10 nM", "value": -1, "unit": "%"},
      {"measurement": "inhibition at 0.1 µM", "setting": "NUAK2(h); 100 nM", "value": -1, "unit": "%"},
      {"measurement": "inhibition at 1 µM", "setting": "NUAK2(h); 1000 nM", "value": 0, "unit": "%"},
      {"measurement": "inhibition at 0.01 µM", "setting": "IKKα(h); 10 nM", "value": -3, "unit": "%"},
      {"measurement": "inhibition at 0.1 µM", "setting": "IKKα(h); 100 nM", "value": -3, "unit": "%"},
      {"measurement": "inhibition at 1 µM", "setting": "IKKα(h); 1000 nM", "value": -7, "unit": "%"},
      {"measurement": "inhibition at 0.01 µM", "setting": "IGF-1R(h); 10 nM", "value": -5, "unit": "%"},
      {"measurement": "inhibition at 0.1 µM", "setting": "IGF-1R(h); 100 nM", "value": 54, "unit": "%"},
      {"measurement": "inhibition at 1 µM", "setting": "IGF-1R(h); 1000 nM", "value": 88, "unit": "%"},
      {"measurement": "inhibition at 0.01 µM", "setting": "[1]; 10 nM", "value": 3, "unit": "%"},
      {"measurement": "inhibition at 0.1 µM", "setting": "[1]; 100 nM", "value": 2, "unit": "%"},
      {"measurement": "inhibition at 1 µM", "setting": "[1]; 1000 nM", "value": 0, "unit": "%"},
      {"measurement": "inhibition at 0.01 µM", "setting": "EphA8(h); 10 nM", "value": 1, "unit": "%"},
      {"measurement": "inhibition at 0.1 µM", "setting": "EphA8(h); 100 nM", "value": 5, "unit": "%"},
      {"measurement": "inhibition at 1 µM", "setting": "EphA8(h); 1000 nM", "value": 29, "unit": "%"},
      {"measurement": "inhibition at 0.01 µM", "setting": "MYLK2(h); 10 nM", "value": 7, "unit": "%"},
      {"measurement": "inhibition at 0.1 µM", "setting": "MYLK2(h); 100 nM", "value": 0, "unit": "%"},
      {"measurement": "inhibition at 1 µM", "setting": "MYLK2(h); 1000 nM", "value": 21, "unit": "%"}
    ]}
  ]
}
